This test relates to tryptase purified from human lung or skin tissue preparations or human mast cell line (HMC-1). Briefly: In vitro Tryptase Inhibition Assay. The settings on record: substrate tosyl-Gly-Pro-Lys-p-nitroanilide; Tris-HCl pH 8.2; zinc chloride 150 μM; 1 hour preincubation at room temperature; read-out: Ki (apparent inhibition constant, tryptase inhibitory activity). Type of test: biochemical. On the procedure:
Tryptase solution ([…]) was prepared by dissolving tryptase purified from human lung or skin tissue preparations or human mast cell line (HMC-1) or obtained from commercial sources, e.g., ICN Biomeidals, Irvine, Calif., Athens Research & Technology, Athens, Ga., etc., in a solvent mixture comprising: 10 mM 2-N-morpholinoethane sulfonic acid, 2 mM CaCl2, 20% glycerol and 50 µg/mL heparin. Substrate solution containing 2 mM synthetic tripeptide (tosyl-Gly-Pro-Lys-p-nitroanilide) was obtained from Sigma. Test Compound solutions were prepared by diluting a stock solution (1 mg of test Compound in 200 μL of dimethylsulfoxide (DMSO)) by ten-fold into assay buffer (comprising: Tris-HCl (pH 8.2), 50 mM; NaCl, 100 MM; 0.05% polyoxyethylenesorbitan monolaurate (Tween-20®); and zinc chloride, 150 μM) and then making seven additional three-fold dilutions into 10% DMSO in assay buffer.
Aliquots (50 μL) from each of the eight dilutions of test compound solution were added to separate wells in a 96-well U-bottom microtiter plate. Typtase solution (25 μL) was added to each well and the solutions were mixed 1 hour at room temperature. Substrate solution (25 μL) was added to initiate the enzymatic reaction and the microtiter plates were immediately transferred to a UVIMAX Kinetic Microplate Reader (Molecular Devices). The hydrolysis of the chromogenic substrate was followed spectrophotometrically at 405 nanometers for five minutes. Initial velocity measurements were calculated from the progress curves by kinetic analysis program (BatchKi; Petr Kuzmic, University of Wisconsin, Madison, Wis.). Apparent inhibition constants (K) were calculated from the enzyme progress curves using standard mathematical models.
`CC(c1nc2c(F)cc(F)c(F)c2[nH]1)c1nc2ccc(C(=O)NCCOc3ccccc3C(=O)O)cc2n1C` (stereo not drawn) [Compound 80, 2-(2-{2-[1-(4,6,7-Trifluoro-1H-benzoimidazol-2-yl)ethyl]-3-methyl-3H-benzoimidazol-5-ylcarbonylamino}ethoxy)benzoic acid]: the Ki is 10 nM.
For `CC(c1nc2cc(F)c(F)cc2[nH]1)c1nc2ccc(C(=O)NCCOc3ccccc3C(=O)O)cc2n1C` (stereo not drawn) [Compound 81, 2-(2-{2-[1-(5,6-difluoro-1H-benzoimidazol-2-yl)ethyl]-3-methyl-3H-benzoimidazol-5-ylcarbonylamino}ethoxy)benzoic acid] the value was 10 nM.
As to `CCOC(=O)c1ccccc1OCCNC(=O)c1ccc2nc(C(C)c3nc4cc(OC(=O)OC)ccc4n3C(=O)C(C)C)n(C)c2c1` (stereo not drawn) [Compound 84, Ethyl 2-(2-{2-[1-(1-isobutyryl-5-methoxycarbonyloxy-1H-benzoimidazol-2-yl)ethyl]-3-methyl-3H-benzoimidazol-5-ylcarbonylamino}ethoxy)benzoate], the Ki was 2600 nM.
The result for `Cn1c(Cc2nc3cc(CN)ccc3[nH]2)nc2ccc(C(=O)NCCc3cccc4ccccc34)cc21` [Compound 102, 2-(5-aminomethyl-1H-benzoimidazol-2-ylmethyl)-3-methyl-N-(2-naphth-1-ylethyl)-3H-benzoimidazole-5-carboxamide] reads 0.07 nM.
`Cn1c(Cc2nc3c([nH]2)CCC(CN)C3)nc2ccc(C(=O)NCCc3cccc4ccccc34)cc21` (stereo not drawn) [Compound 112, 2-(5-aminomethyl-4,5,6,7-tetrahydro-1H-benzoimidazol-2-ylmethyl)-3-methyl-N-(2-naphth-1-ylethyl)-3H-benzoimidazole-5-carboxamide]: the Ki was determined as 0.05 nM.
For `CC(=N)N1CCc2[nH]c(Cc3nc4ccc(C(=O)NCCc5cccc6ccccc56)cc4n3C)nc2C1` [Compound 115, 2-[5-(1-iminoethyl)-4,5,6,7-tetrahydro-1H-imidazo[4,5-c]pyridin-2-ylmethyl]-3-methyl-N-(2-naphth-1-ylethyl)-3H-benzoimidazole-5-carboxamide] the value was 3 nM.
The result for `CC(=N)N1CCc2[nH]c(C(=O)c3nc4ccc(C(=O)NCCc5cccc6ccccc56)cc4n3C)nc2C1` [Compound 116, 2-[5-(1-iminoethyl)-4,5,6,7-tetrahydro-1H-imidazo[4,5-c]pyridin-2-ylcarbonyl]-3-methyl-N-(2-naphth-1-ylethyl)-3H-benzoimidazole-5-carboxamide] reads 6 nM; that for `Cn1c(Cc2nc3c([nH]2)CCN(C=N)C3)nc2ccc(C(=O)NCCc3cccc4ccccc34)cc21` [Compound 117, 2-(5-iminomethyl-4,5,6,7-tetrahydro-1H-imidazo[4,5-c]pyridin-2-ylmethyl)-3-methyl-N-(2-naphth-1-ylethyl)-3H-benzoimidazole-5-carboxamide], 8 nM; that for `CC(=N)N1CCc2[nH]c(Cc3nc4ccc(C(=O)NCC(O)c5cccc6ccccc56)cc4n3C)nc2C1` (stereo not drawn) [Compound 126, 2-[5-(1-iminoethyl)-4,5,6,7-tetrahydro-1H-imidazo[4,5-c]pyridin-2-ylmethyl]-3-methyl-N-(2-hydroxy-2-naphth-1-ylethyl)-3H-benzoimidazole-5-carboxamide], 8 nM.
`CC(=N)N1CCc2[nH]c(Cc3nc4ccc(C(=O)NCCc5c(O)ccc6ccccc56)cc4n3C)nc2C1` [Compound 127, 2-[5-(1-iminoethyl)-4,5,6,7-tetrahydro-1H-imidazo[4,5-c]pyridin-2-ylmethyl]-3-methyl-N-[2-(2-hydroxynaphth-1-yl)ethyl]-3H-benzoimidazole-5-carboxamide]: the Ki came out at 6 nM.
For `CC(=N)N1CCc2[nH]c(Cc3nc4ccc(C(=O)NCCc5ccc(O)c6ccccc56)cc4n3C)nc2C1` [Compound 128, 2-[5-(1-iminoethyl)-4,5,6,7-tetrahydro-1H-imidazo[4,5-c]pyridin-2-ylmethyl]-3-methyl-N-[2-(4-hydroxynaphthal-1-yl)ethyl]-3H-benzoimidazole-5-carboxamide], the Ki came to 2 nM.
The result for `N=C(N)Nc1ccc2[nH]c(Cc3nc4ccc(C(=O)NCCc5cccc6ccccc56)cc4n3CC(O)CO)nc2c1` (stereo not drawn) [Compound 132, 2-(5-guanidino-1H-benzoimidazol-2-ylmethyl)-3-(2,3-dihydroxy)propyl-N-(2-naphth-1-ylethyl)-3H-benzoimidazole-5-carboxamide] reads 0.02 nM.
For `N=C(N)Nc1ccc2[nH]c(C(=O)c3nc4ccc(C(=O)NCCc5cccc6ccccc56)cc4n3CC(O)CO)nc2c1` (stereo not drawn) [Compound 134, 2-(5-guanidino-1H-benzoimidazol-2-ylcarbonyl)-3-(2,3-dihydroxy)propyl-N-(2-naphth-1-ylethyl)-3H-benzoimidazole-5-carboxamide] the value was 0.02 nM; for `N=C(N)Nc1ccc2[nH]c(Cc3nc4ccc(C(=O)NCCc5cccc6ccccc56)cc4n3CCCO)nc2c1` [Compound 138, 2-(5-guanidino-1H-benzoimidazol-2-ylmethyl)-3-(3-hydroxy)propyl-N-(2-naphth-1-ylethyl)-3H-benzoimidazole-5-carboxamide], 0.2 nM; for `N=C(N)Nc1ccc2[nH]c(Cc3nc4ccc(C(=O)NCCc5cccc6ccccc56)cc4n3CCO)nc2c1` [Compound 152, 2-(5-guanidino-1H-benzoimidazol-2-ylmethyl)-3-(2-hydroxy)ethyl-N-(2-naphth-1-ylethyl)-3H-benzoimidazole-5-carboxamide], 0.5 nM.
For `CC(=N)N1CCc2[nH]c(C(C)c3nc4ccc(C(=O)NCCc5cccc6ccccc56)cc4n3C)nc2C1` (stereo not drawn) [Compound 169, 2-{1-[5-(1-iminoethyl)-4,5,6,7-tetrahydro-1H-imidazo[4,5-c]pyridin-2-yl]ethyl}-3-methyl-N-(2-naphth-1-ylethyl)-3H-benzoimidazole-5-carboxamide] the value was 1 nM; for `CCOC(=O)c1ccccc1OCCNC(=O)c1ccc2nc(C(C)c3nc4c([nH]3)CCN(C(C)=N)C4)n(C)c2c1` (stereo not drawn) [Compound 182, ethyl 2-[2-(2-{1-[5-(1-iminoethyl)-4,5,6,7-tetrahydro-1H-imidazo[4,5-c]pyridin-2-yl]ethyl}-3-methyl-3H-benzoimidazol-5-ylcarbonylamino)ethoxy]benzoate], 4 nM; for `COCCn1c(C(C)c2nc3c([nH]2)CCN(C(C)=N)C3)nc2ccc(C(=O)NCCOc3ccccc3C(=O)O)cc21` (stereo not drawn) [Compound 194, 2-[2-(2-{1-[5-(1-iminoethyl)-4,5,6,7-tetrahydro-1H-imidazo [4,5-c]pyridin-2-yl]ethyl)-3-(2-methoxyethyl)-3H-benzoimidazol-5-ylcarbonylamino)ethoxy]benzoic acid], 9 nM.
Regarding `CCOC(=O)c1ccccc1OCCNC(=O)N1CCc2[nH]c(C(C)c3nc4c([nH]3)CCN(C(C)=N)C4)nc2C1` (stereo not drawn) [Compound 203, ethyl 2-[2-(2-{1-[5-(1-iminoethyl)-4,5,6,7-tetrahydro-1H-imidazo[4,5-c]pyridin-2-yl]ethyl}-1,4,6,7-tetrahydroimidazo[4,5-c]pyridin-5-ylcarbonylamino)ethoxy]benzoate], the Ki was found to be 8 nM.
On to `CC(=N)N1CCc2[nH]c(C(C)c3nc4ccc(C(=O)NCCOc5ccccc5-c5nnn[nH]5)cc4n3C)nc2C1` (stereo not drawn) [Compound 225, 2-{1-[5-(1-iminoethyl)-4,5,6,7-tetrahydro-1H-imidazo[4,5-c]pyridin-2-yl]ethyl}-3-methyl-N-[2-(2-tetrazolylphenoxy)ethyl]-3H-benzoimidazole-5-carboxamide], for which the Ki was determined as 8 nM.
The result for `CC(c1nc2cc(NC(=N)N)ccc2[nH]1)c1nc2ccc(C(=O)NCCOc3ccccc3C(N)=O)cc2n1C` (stereo not drawn) [Compound 249, 2-[1-(5-guanidino-1H-benzoimidazol-2-yl)ethyl]-N-[2-(2-carbamoylphenoxy)ethyl]-3-methyl-3H-benzoimidazole-5-carboxamide] reads 0.7 nM; that for `CC(c1nc2cc(NC(=N)N)ccc2[nH]1)c1nc2ccc(C(=O)NCCOc3ccc(Cl)cc3C(N)=O)cc2n1C` (stereo not drawn) [Compound 250, 2-[1-(5-guanidino-1H-benzoimidazol-2-yl)ethyl]-N-[2-(2-carbamoyl-4-chlorophenoxy)ethyl]-3-methyl-3H-benzoimidazole-5-carboxamide], 0.4 nM; that for `CC(c1nc2cc(NC(=N)N)ccc2[nH]1)c1nc2ccc(C(=O)NCCOc3cc(Cl)ccc3C(=O)O)cc2n1C` (stereo not drawn) [Compound 251, 4-chloro-2-(2-{2-[1-(5-guanidino-1H-benzoimidazol-2-yl)ethyl]-3-methyl-3H-benzoimidazol-5-ylcarbonylamino}ethoxy)benzoic acid], 0.8 nM.
For `CC(c1nc2cc(NC(=N)N)ccc2[nH]1)c1nc2ccc(C(=O)NCCOc3ccc(Cl)cc3C(=O)O)cc2n1C` (stereo not drawn) [Compound 252, 5-chloro-2-(2-{2-[1-(5-guanidino-1H-benzoimidazol-2-yl)ethyl]-3-methyl-3H-benzoimidazol-5-ylcarbonylamino}ethoxy)benzoic acid] the value was 0.4 nM.

The record behind these values is US6562854B2, “Compositions comprising a substituted benzimidazole useful for treating immunomediated inflammatory disorders” (Axys Pharmaceuticals, Inc., priority 1994, dated 2003).
